Here are results for 15 compounds from patent US9765040B2, “Therapeutic agent for pain” (Astellas Pharma Inc., priority 2010, dated 2017).

Where two headings read alike, the source gives them in different places.

One assay concerns the target rat recombinant 11β-HSD1 (Rattus norvegicus (Rat), UniProt P16232). The assay can be described thus: Measurement test for rat 11β-HSD1 inhibitory activity (HTRF cortisol detection). The format is biochemical. Particulars: rat recombinant 11β-HSD1, 200 nM cortisone, 40 μM NADPH, pH 6.6, room temperature 1 hour. On the procedure: The procedure for measuring the 11β-HSD1-inhibitory activity is as follows. The enzyme reaction and the measurement were carried out using a 384-well plate. The enzyme was prepared in accordance with Journal of Biological Chemistry, 2001, Vol. 276, p. 21343-21350. The reaction was carried out by adding a test compound at various concentrations to a reaction liquid consisting of a 5 mM phosphate buffer (pH 6.6), 200 nM cortisone, 40 μM reduced nicotinamide adenine dinucleotide phosphate (NADPH), and rat recombinant 11β-HSD1, followed by incubating at room temperature for one hour (10 μl/well). The test compound was prepared by dissolving in dimethyl sulfoxide (DMSO) such that a DMSO concentration reached 1% in the reaction liquid. After the enzyme reaction was completed, the enzyme inhibitory action was measured by detecting cortisol using a homogeneous time-resolved fluorescence (HTRF) method. Each of a d2-labeled cortisol containing 400 μM carbenoxolone and a cryptate-labeled cortisol antibody (CIS Bio International Co., Ltd.) was added at 5 μl/well, followed by incubating at room temperature for 2 hours, and then the fluorescence intensity was measured using a fluorophotometer (trade name: ARVO HTS 1420, Perkin Elmer/Wallac), and the enzyme inhibitory activity was calculated from the fluorescence intensity ratio of two wavelengths (665 nm/620 nm).
The measurement results were calculated by averaging the values of 3 wells of the same condition. The ratio when DMSO was added instead of the test compound was taken as 0% and the ratio when 11β-HSD1 was not added was taken as 100%, thereby calculating the 50% inhibition concentration of the test compound as IC50 of the compound inhibitory activity.
On the technique in general: TR-FRET usually uses a lanthanide donor and a delayed reading to cut background.

For assay [1], the system named is spinal nerve ligation model. The assay can be described thus: Test of spinal nerve ligation model (von Frey hair test). Particulars: read-out: Improvement rate % (dose). The assay is classed as in vivo, rat. Here is the method: The test was carried out in accordance with Pain, 1992, Vol. 50, p. 355-363. The lumbar skin and muscle of a rat (SD, male, 5- to 6-week old) were incised under pentobarbital anesthesia and the transverse processes of lumbar L6 were removed to expose lumbar nerves. The L5 and L6 spinal nerves were ligated with silk thread and then the wound was sutured. The treatment was performed on the left side. However, in a case of a pseudo-operation, the wound was sutured without carrying out the nerve ligation.
Drug efficacy evaluation was carried out by a von Frey hair test 7 to 20 days after the operation. The withdrawal response threshold was calculated in accordance with Journal of Neuroscience Methods, 1994, Vol. 53, p. 55-63. The plantar of hindlimb was stimulated using 8 kinds of von Frey filaments (0.41 to 15.14 g), and 50% withdrawal response thresholds were determined by an up-and-down method. The test was initiated from 2.04 g of the filament, and a case where the withdrawal response of the limb was observed was taken as presence of the response.
On the previous day of the drug efficacy evaluation, the animals showing reduction in the thresholds according to a von Frey hair test were preliminarily selected and grouped such that the difference in the average values of the thresholds between the respective groups was reduced.
The test substance was suspended in a 0.5% methylcellulose solution and administered orally 2 hours before the drug efficacy evaluation. The evaluation of the test substance was carried out by determining the improvement rate of the group administered with the test substance when the threshold of the limb on the treatment side in the pseudo-operation animal group was taken as 100% and the threshold of the limb on the treatment side in an operated animal group administered with a solvent was taken as 0%.

In assay [2] the test system is fibromyalgia model induced by repeated administration of reserpine. Nature of the assay: Test of fibromyalgia model induced by repeated administration of reserpine (muscle pressure pain threshold). The settings on record: 1 mg/kg oral, maximum among 30, 60 and 120 min after administration, normal rat = 100%, reserpine + solvent = 0%, SD rat. The assay is classed as in vivo. On the procedure: The test was carried out in accordance with Pain, 2009, Vol. 146, p. 26-33. Rats (SD, male, 7 weeks old) were used.
The threshold measurement for the muscle pressure pain was carried out according to the method of Schafers et al. (Pain, 2003, Vol. 104, p. 579-588). The pressure stimulus gradually increasing up to 250 g was applied to the gastrocnemius muscle of the right hindlimb of the rat. […] The measurements were carried out in triplicate for each point of time and the average thereof was taken as a measured value.
A solvent (0.5% acetic acid/water) or reserpine at 1 mg/kg was subcutaneously administered on a dorsal subcutaneous part for 3 days once per day. The administration volume of the solvent or reserpine was taken as 1 mL per kg of a body weight of an animal. The muscle pressure pain thresholds of the respective rats were measured at 6 days after the initiation of the administration of the solvent or reserpine, and grouped such that the difference in the average values of the thresholds between the respective groups was reduced.
The drug efficacy evaluation was carried out the next day. The test substance was suspended in a 0.5% methylcellulose solution and the muscle pressure pain thresholds were measured 30, 60, and 120 minutes after oral administration. For the normal rats, drug administration was not carried out, and only the measurement of the muscle pressure pain thresholds was carried out. […] The evaluation of the test substance was carried out by determining the maximal improvement rate of the group administered with the test substance among at time points of 30, 60, and 120 minutes after the administration when the muscle pressure pain threshold of the normal rat is taken as 100% and the muscle pressure pain threshold of the rat treated with reserpine while administered with the solvent is taken as 0%.

[3] abbreviates: 0.3 mg/kg oral, 2 hours before evaluation, 50% withdrawal response threshold, pseudo-operation group = 100%, operated solvent group = 0%, SD rat.

Chain of rat recombinant 11β-HSD1 (P16232 whole entry): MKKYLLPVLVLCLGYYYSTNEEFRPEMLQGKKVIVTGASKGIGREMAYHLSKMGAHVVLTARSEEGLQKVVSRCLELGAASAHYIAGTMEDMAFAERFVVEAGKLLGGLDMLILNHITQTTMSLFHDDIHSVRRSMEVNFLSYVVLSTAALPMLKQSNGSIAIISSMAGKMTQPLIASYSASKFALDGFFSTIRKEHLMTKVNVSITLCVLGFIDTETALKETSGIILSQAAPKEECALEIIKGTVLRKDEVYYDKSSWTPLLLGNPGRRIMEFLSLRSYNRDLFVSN

Turning to `Cn1c(-c2ccc(F)cc2Br)nnc1C(C)(C)Oc1c(F)cc(F)cc1F` [Compound 1], the IC50 on rat recombinant 11β-HSD1 worked out at 35 nM. In addition, the inhibition in vivo at 0.3 mg/kg in assay [1] (setting [3]) came out at 71%.

For `Cn1c(-c2ccc(F)cc2Cl)nnc1C(C)(C)Oc1c(F)cc(F)cc1F` [Compound 2], the inhibition in vivo at 0.3 mg/kg in assay [1] (Rattus norvegicus, po, 2 h) is 88%. Further, the “Maximum improvement rate % (dose)” value in assay [2] is reported as 30 (1 mg/kg) %.

Take `Cn1c(-c2ccccc2Cl)nnc1C(C)(C)Oc1c(F)cc(F)cc1F` [Compound 3]: the IC50 at rat recombinant 11β-HSD1 amounted to 24 nM. Besides, the inhibition in vivo at 0.3 mg/kg in assay [1] (setting [3]) was 62%.

Take `Cl.Cn1c(-c2ccccc2Cl)nnc1C(C)(C)Oc1c(F)cc(Cl)cc1F` [Compound 4]: on rat recombinant 11β-HSD1, the IC50 came to 32 nM. Further, the inhibition in vivo at 0.3 mg/kg in assay [1] (setting [3]) stood at 85%. Besides, the “Maximum improvement rate % (dose)” value in assay [2] is recorded as 82 (1 mg/kg) %.

Take `Cn1c(-c2ccc(F)cc2Cl)nnc1C(C)(C)Oc1c(F)cc(Cl)cc1F` [Compound 5]: the IC50 at rat recombinant 11β-HSD1 turned out to be 263 nM. Also, in assay [1] (setting [3]), the inhibition in vivo at 0.3 mg/kg turned out to be 65%.

As for `Cn1c(-c2ccccc2F)nnc1C(C)(C)Oc1c(F)cc(F)cc1F` [Compound 6], the IC50 at rat recombinant 11β-HSD1 was determined as 322 nM. The inhibition in vivo at 0.3 mg/kg in assay [1] (setting [3]) was 52%.

Turning to `Cn1c(-c2c[nH]nc2C(F)(F)F)nnc1C(C)(C)Oc1c(F)cc(F)cc1F` [Compound 7], the IC50 at rat recombinant 11β-HSD1 came to 32 nM. The inhibition in vivo at 0.3 mg/kg in assay [1] (setting [3]) was found to be 73%.

For the compound `CCn1c(-c2ccc(C(N)=O)cc2)nnc1C(C)(C)Oc1c(F)cc(Cl)cc1F` [Compound 8], the inhibition in vivo at 0.3 mg/kg in assay [1] (Rattus norvegicus, po, 2 h) was 87%. For the same compound, the “Maximum improvement rate % (dose)” value in assay [2] was 41 (1 mg/kg) %.

With `CC(C)n1c(-c2ccc(C(N)=O)cc2)nnc1C(C)(C)Oc1c(F)cc(F)cc1F` [Compound 9], on rat recombinant 11β-HSD1, the IC50 is 26 nM. For the same compound, the inhibition in vivo at 0.3 mg/kg in assay [1] (setting [3]) came out at 78%.

`Cn1c(-c2ccc(C(N)=O)cc2F)nnc1C(C)(C)Oc1c(F)cc(Cl)cc1F` [Compound 10]: the inhibition in vivo at 0.3 mg/kg in assay [1] (setting [3]) amounted to 81%. In assay [2], the “Maximum improvement rate % (dose)” value is 65 (1 mg/kg) %.

For `CC(C)(Oc1ccc(F)cc1F)c1nnc(-c2ccc(C(N)=O)cc2F)n1C1CC1` [Compound 11], at rat recombinant 11β-HSD1, the IC50 is 64 nM. The inhibition in vivo at 0.3 mg/kg in assay [1] (setting [3]) was found to be 82%. The “Maximum improvement rate % (dose)” value in assay [2] was 83 (1 mg/kg) %.

Regarding `Cn1c(-c2ccc(C(N)=O)cc2F)nnc1C(C)(C)Oc1c(F)cc(F)cc1F` [Compound 12], the IC50 on rat recombinant 11β-HSD1 is 182 nM. The inhibition in vivo at 0.3 mg/kg in assay [1] (setting [3]) was found to be 54%.

As to `CC(C)n1c(-c2ccc(C(N)=O)cc2)nnc1C(C)(C)Oc1c(F)cc(Cl)cc1F` [Compound 13], the IC50 on rat recombinant 11β-HSD1 was determined as 68 nM. For the same compound, the inhibition in vivo at 0.3 mg/kg in assay [1] (setting [3]) is 53%.

Take `CC(C)(Oc1ccc(F)cc1F)c1nnc(-c2ccc(C(N)=O)cc2Cl)n1C1CC1` [Compound 14]: the concentration for half-maximal inhibition (IC50) at rat recombinant 11β-HSD1 was 16 nM. Also, the inhibition in vivo at 0.3 mg/kg in assay [1] (setting [3]) was determined as 73%.

With `CC(C)n1c(-c2ccc(C(N)=O)cc2F)nnc1C(C)(C)Oc1c(F)cc(F)cc1F` [Compound 15], in assay [1] (Rattus norvegicus, po, 2 h), the inhibition in vivo at 0.3 mg/kg amounted to 86%. For the same compound, the “Maximum improvement rate % (dose)” value in assay [2] was 45 (1 mg/kg) %.

Usually IC50 stands for the concentration at which inhibition is half-maximal.
